{"source": "patent US4585757A", "about": "“Hypotensive active peptides” (Texas Tech University Health Sciences Center, priority 1984, dated 1986)", "key": {"[1]": {"tested_on": "Mongrel dogs", "assay": "dog blood pressure assay", "type": "in vivo", "details": "dose 3 × 10^-9 moles/kg, mean of 4 replications", "experimental": "The dog blood pressure assay was conducted according to the following method:\nMongrel dogs of either sex weighing between 6-15 kg were anesthetized by intravenous injection of sodium pentobarbital (30 mg/kg). The femoral artery and vein were cannulated for the measurement of blood pressure and the injection of drugs, respectively. Arterial blood pressure was determined with a Statham pressure transducer and was recorded on a Grass polygraph. Mean arterial pressure (MAP) were calculated for the periods before and after each peptide injection. A tracheotomy was performed to insure a patient airway for spontaneous respiration.\nHypotensive screening studies involved injecting each dog with 0.1; 0.5; 1.0; and 2.0 ug/kg. The CIP as supplied by Peninsula Laboratories was in the lyophilyzed form. Prior to injection the CIP was dissolved in saline."}, "[2]": {"tested_on": "rat tail artery helical strip", "set-up": "dose or concentration left out as unconfirmed", "details": "strips contracted with arginine vasopressin", "experimental": "Male and female Sprague-Dawley rats were anesthetized with pentobarbital (50 mg/kg) before removal of the tail artery. Upon isolation the artery was placed in ice cold Krebs-Hensleit solution (KHS) which was oxygenated with 95% O2, 5% CO2. The vessels were cut helically and strips of approximately 1.5 cm were secured in a Sawyer-Bartleston chamber containing KHS. The development of force of the helical strips was measured with a Grass FT.03 force displacement transducer and recorded on a Grass Model 79D polygraph. Isolated tail artery helical strips were equilibrated for one hour prior to addition of any peptide. In all cases, the strips were first contracted by adding arginine vasopressin (AVP), to the bath. The peptide being studied was then added to the bath and the degree of relaxation was determined."}, "[3]": {"tested_on": "Sprague-Dawley rats", "assay": "rat blood pressure assay", "type": "in vivo", "details": "anesthetized rat, mean of 4 replications", "description": "The rat blood pressure assay was conducted as follows: Sprague-Dawley rats of both sexes, weighing between 100 and 200 grams, were anesthetized with sodium pentobarbital and the right carotid artery and jugular vein were cannulated with polyethylene tubing PE50. The hypotensive peptide was administered and blood pressure was recorded in the anesthetized rats as described above for dogs."}}, "note": "Like-named read-outs stand apart in the source and are kept apart here. Peptide text beside a SMILES is read from it."}
{"molecule": "NC(N)=NCCC[C@H](NC(=O)[C@H](Cc1ccccc1)NC(=O)[C@@H]1CCCN1C(=O)[C@H](CO)NC(=O)[C@H](Cc1ccccc1)NC(=O)CNC(=O)[C@@H]1CCCN1C(=O)[C@@H]1CCCN1C(=O)[C@@H](N)CCCN=C(N)N)C(=O)O", "note": "[Bradykinin] (H-RPPGFSPFR-OH)", "values": [{"measurement": "Maximum Decrease in Blood Pressure", "setting": "[1]", "result": 44, "unit": "mmHg"}]}
{"molecule": "N=C(N)NCCC[C@H](N)C(=O)O", "note": "[L Arg, L-arginine]", "values": [{"measurement": "Tension change", "setting": "[2]; dose of 100", "result": 0, "unit": "gm"}, {"measurement": "Tension change", "setting": "[2]; dose of 200", "result": 0, "unit": "gm"}, {"measurement": "Tension change", "setting": "[2]; dose of 500", "result": 0, "unit": "gm"}]}
{"molecule": "O=C(O)[C@@H]1CCCN1", "note": "[L Pro, L-proline]", "values": [{"measurement": "Tension change", "setting": "[2]; dose of 100", "result": 0, "unit": "gm"}, {"measurement": "Tension change", "setting": "[2]; dose of 200", "result": 0, "unit": "gm"}, {"measurement": "Tension change", "setting": "[2]; dose of 500", "result": 0, "unit": "gm"}]}
{"molecule": "Thy-Pro-Arg-Lys [Contraceptive tetrapeptide]", "values": [{"measurement": "Blood Pressure Decrease", "setting": "[3]; dose 100.0 ug/kg", "result": 2, "unit": "mmHg"}, {"measurement": "Blood Pressure Decrease", "setting": "[3]; dose 200.0 ug/kg", "result": 3, "unit": "mmHg"}, {"measurement": "Blood Pressure Decrease", "setting": "[3]; dose 500.0 ug/kg", "result": 9, "unit": "mmHg"}, {"measurement": "Blood Pressure Decrease", "setting": "[3]; dose 1000.0 ug/kg", "result": 13, "unit": "mmHg"}, {"measurement": "Blood Pressure Decrease", "setting": "[3]; dose 2000.0 ug/kg", "result": 15, "unit": "mmHg"}]}
